Measured values as given in patent US11866408B2, “N,N-dimethyltryptamine and related psychedelics and uses thereof” (Terran Biosciences Inc., priority 2021, dated 2024).

What was measured:
[1] = Single oral dose pharmacokinetics study in rats (10 mg/kg PO; plasma levels of prodrug and of metabolite DMT or 5-MeO-DMT by LC-MS/MS); settings: for AUC(0-t) / Cmax: male, Sprague-Dawley, rat, po, 10 mg/kg
[2] = Single intravenous dose pharmacokinetics study in rats (1 mg/kg IV; plasma levels of prodrug and of DMT or 5-MeO-DMT by LC-MS/MS); settings: for AUC(0-t) / AUC(0-inf) / clearance / MRT / Vd / half-life: male, Sprague-Dawley, rat, iv, 1 mg/kg; for clearance: CL/CL_F (mL/min/kg); for MRT: MRT (h); for Vd: Vdss (L/kg); for half-life: t1/2 (h)
[3] = PO 10 mg/kg Plasma (t= 0 to Ihr)
[4] = PO 10 mg/kg, plasma, analyte = dosed compound
[5] = plasma, AUC0-t (nM.hr), PO 10 mg/kg, analyte = dosed compound
[6] = plasma, AUC0-t (ng.hr/mL), PO 10 mg/kg, analyte = dosed compound
[7] = plasma, C0/Cmax (nM), PO 10 mg/kg, analyte = dosed compound
[8] = plasma, C0/Cmax (ng/mL), PO 10 mg/kg, analyte = dosed compound, mean/median
[9] = IV 1 mg/kg Plasma (t= 0 to Ihr)
[10] = IV 1 mg/kg, plasma, analyte = dosed compound
[11] = plasma, AUC0-t (nM.hr), IV 1 mg/kg, analyte = dosed compound
[12] = plasma, AUC0-t (ng.hr/mL), IV 1 mg/kg, analyte = dosed compound
[13] = plasma, AUCinf (nM.hr), IV 1 mg/kg, analyte = dosed compound
[14] = plasma, AUCinf (ng.hr/mL), IV 1 mg/kg, analyte = dosed compound
[15] = plasma, IV 1 mg/kg Plasma (t= 0 to Ihr)
[16] = plasma, IV 1 mg/kg, analyte = dosed compound

For `CN(C)CCc1c[nH]c2ccccc12` [DMT, N,N-dimethyltryptamine], the “Clast” value [1, 3] was 3.18 ng/mL, the “tlast” value [1, 3] was 1.02 h and the “Bioavailability (%) Using AUC0-t” value ([1]; PO 10 mg/kg Plasma (t= 0 to Ihr) vs IV 1 mg/kg) was 0.212%. For the same compound, the “AUC % Extrapolation to infinity” value [1, 4] was 42.6%, the “CL/CL_F” value [1, 4] was 1639 mL/min/kg and the “Clast” value [1, 4] was 1.52 ng/mL. The “tlast” value [1, 4] was 24.0 h, the AUC(0-t) ([1]; plasma, AUC0-t (nM.hr), PO 10 mg/kg Plasma (t= 0 to Ihr)) was 0.0239 µM·h and the AUC(0-t) [1, 5] was 0.314 µM·h. The AUC(0-t) ([1]; plasma, AUC0-t (ng.hr/mL), PO 10 mg/kg Plasma (t= 0 to Ihr)) was 4.51 ng·h/mL, the AUC(0-t) [1, 6] was 59.1 ng·h/mL and the Cmax ([1]; plasma, C0/Cmax (nM), PO 10 mg/kg Plasma (t= 0 to Ihr)) was 47.1 nM. The Cmax [1, 7] was 69.4 nM, the Cmax ([1]; plasma, C0/Cmax (ng/mL), PO 10 mg/kg Plasma (t= 0 to Ihr)) was 8.87 ng/mL and the Cmax [1, 8] was 13.1 ng/mL. For the same compound, the “AUC % Back Extrapolation to C0” value [2, 9] was 67.2%, the “AUC % Extrapolation to infinity” value [2, 9] was 0.502% and the “Clast” value [2, 9] was 5.51 ng/mL. The “tlast” value [2, 9] was 1.00 h, the “AUC % Back Extrapolation to C0” value [2, 10] was 66.4% and the “AUC % Extrapolation to infinity” value [2, 10] was 0.690%. The “Clast” value [2, 10] was 7.12 ng/mL, the “tlast” value [2, 10] was 1.50 h and the AUC(0-t) ([2]; plasma, AUC0-t (nM.hr), IV 1 mg/kg Plasma (t= 0 to Ihr)) was 1.13 µM·h. The AUC(0-t) [2, 11] was 1.14 µM·h, the AUC(0-t) ([2]; plasma, AUC0-t (ng.hr/mL), IV 1 mg/kg Plasma (t= 0 to Ihr)) was 213 ng·h/mL and the AUC(0-t) [2, 12] was 214 ng·h/mL. The AUC(0-inf) ([2]; plasma, AUCinf (nM.hr), IV 1 mg/kg Plasma (t= 0 to Ihr)) was 1.14 µM·h, the AUC(0-inf) [2, 13] was 1.15 µM·h and the AUC(0-inf) ([2]; plasma, AUCinf (ng.hr/mL), IV 1 mg/kg Plasma (t= 0 to Ihr)) was 214 ng·h/mL. For the same compound, the AUC(0-inf) [2, 14] was 216 ng·h/mL, the clearance [2, 15] was 87.1 mL/min/kg and the clearance [2, 16] was 85.8 mL/min/kg. The MRT [2, 15] was 7.92 min, the MRT [2, 16] was 9.12 min and the Vd [2, 15] was 0.645 L/kg. The Vd [2, 16] was 0.774 L/kg, the half-life [2, 15] was 8.4 min and the half-life [2, 16] was 8.76 min.
In the case of `COc1ccc2c(c1)c(CCN(C)C)cn2P(=O)(OC(C)C)OC(C)C` [Diisopropylphosphonate 5-MeO-DMT Prodrug, 2-(1-diisopropoxyphosphoryl-5-methoxy-indol-3-yl)-N,N-dimethyl-ethanamine], the “Bioavailability (%) Using AUCinf” value ([1]; PO 10 mg/kg vs IV 1 mg/kg, plasma, analyte = dosed compound) is reported as 33.8%, the “AUC % Extrapolation to infinity” value [1, 4] is reported as 7.77% and the “CL/CL_F” value [1, 4] is reported as 450 mL/min/kg. For the same compound, the “Clast” value [1, 4] was 2.84 ng/mL, the “tlast” value [1, 4] was 24.1 h and the AUC(0-t) [1, 5] was 0.921 µM·h. The AUC(0-t) [1, 6] was 352 ng·h/mL, the Cmax [1, 7] was 210 nM and the Cmax [1, 8] was 80.4 ng/mL. The “AUC % Back Extrapolation to C0” value [2, 10] was 7.68%, the “AUC % Extrapolation to infinity” value [2, 10] was 7.01% and the “Clast” value [2, 10] was 5.32 ng/mL. The “tlast” value [2, 10] was 4.00 h, the AUC(0-t) [2, 11] was 0.273 µM·h and the AUC(0-t) [2, 12] was 104 ng·h/mL. It also gave an AUC(0-inf) [2, 13] of 0.295 µM·h, an AUC(0-inf) [2, 14] of 113 ng·h/mL and a clearance [2, 16] of 150 mL/min/kg. For the same compound, the MRT [2, 16] was 83.4 min, the Vd [2, 16] was 12.2 L/kg and the half-life [2, 16] was 60.6 min.
In the case of `CC(C)OP(=O)(OC(C)C)n1cc(CCN(C)C)c2ccccc21` [Diisopropylphosphonate DMT Prodrug, 2-(1-diisopropoxyphosphorylindol-3-yl)-N,N-dimethyl-ethanamine], the “Bioavailability (%) Using AUC0-t” value ([1]; PO 10 mg/kg Plasma [Tlast = 4 h] vs IV 1 mg/kg) is reported as 16.1%, the “tlast” value ([1]; PO 10 mg/kg Plasma [Tlast = 4 h], analyte = dosed prodrug) is reported as 4.00 h and the “Clast” value [1, 4] is reported as 28.2 ng/mL. The “tlast” value [1, 4] was 7.00 h, the AUC(0-t) ([1]; plasma, AUC0-t (nM.hr), PO 10 mg/kg Plasma [Tlast = 4 h], analyte = dosed prodrug) was 1.39 µM·h and the AUC(0-t) [1, 5] was 1.83 µM·h. The AUC(0-t) ([1]; plasma, AUC0-t (ng.hr/mL), PO 10 mg/kg Plasma [Tlast = 4 h], analyte = dosed prodrug) was 489 ng·h/mL, the AUC(0-t) [1, 6] was 644 ng·h/mL and the Cmax ([1]; plasma, C0/Cmax (nM), PO 10 mg/kg Plasma [Tlast = 4 h], analyte = dosed prodrug) was 554 nM. It also gave a Cmax [1, 7] of 554 nM, a Cmax ([1]; plasma, C0/Cmax (ng/mL), PO 10 mg/kg Plasma [Tlast = 4 h], analyte = dosed prodrug) of 195 ng/mL and a Cmax [1, 8] of 195 ng/mL. For the same compound, the “AUC % Back Extrapolation to C0” value [2, 10] was 36.7%, the “AUC % Extrapolation to infinity” value [2, 10] was 3.21% and the “Clast” value [2, 10] was 5.22 ng/mL. For the same compound, the “tlast” value [2, 10] was 4.00 h, the AUC(0-t) [2, 11] was 0.862 µM·h and the AUC(0-t) [2, 12] was 304 ng·h/mL. The AUC(0-inf) [2, 13] was 0.881 µM·h, the AUC(0-inf) [2, 14] was 311 ng·h/mL and the clearance [2, 16] was 70.2 mL/min/kg. For the same compound, the MRT [2, 16] was 52.1 min, the Vd [2, 16] was 4.21 L/kg and the half-life [2, 16] was 51.9 min.
